Data: article PMC2949700, “Identification of the full set of Listeria monocytogenes penicillin-binding proteins and characterization of PBPD2 (Lmo2812)” (BMC Microbiology, 2010)
Values after ≈ are worked out from the molar mass of the structure shown. Marks after values point to notes of the source that are not given here.

Assays:
PBPA2 (PBP4) [1] = molecular target: T1, PBPA2 (PBP4) (Listeria monocytogenes, UniProt Q8Y547); assay: Competition binding assay (ampicillin preincubation, then Boc-FL), whole cells
T1 sequence (Q8Y547 entry or part of it): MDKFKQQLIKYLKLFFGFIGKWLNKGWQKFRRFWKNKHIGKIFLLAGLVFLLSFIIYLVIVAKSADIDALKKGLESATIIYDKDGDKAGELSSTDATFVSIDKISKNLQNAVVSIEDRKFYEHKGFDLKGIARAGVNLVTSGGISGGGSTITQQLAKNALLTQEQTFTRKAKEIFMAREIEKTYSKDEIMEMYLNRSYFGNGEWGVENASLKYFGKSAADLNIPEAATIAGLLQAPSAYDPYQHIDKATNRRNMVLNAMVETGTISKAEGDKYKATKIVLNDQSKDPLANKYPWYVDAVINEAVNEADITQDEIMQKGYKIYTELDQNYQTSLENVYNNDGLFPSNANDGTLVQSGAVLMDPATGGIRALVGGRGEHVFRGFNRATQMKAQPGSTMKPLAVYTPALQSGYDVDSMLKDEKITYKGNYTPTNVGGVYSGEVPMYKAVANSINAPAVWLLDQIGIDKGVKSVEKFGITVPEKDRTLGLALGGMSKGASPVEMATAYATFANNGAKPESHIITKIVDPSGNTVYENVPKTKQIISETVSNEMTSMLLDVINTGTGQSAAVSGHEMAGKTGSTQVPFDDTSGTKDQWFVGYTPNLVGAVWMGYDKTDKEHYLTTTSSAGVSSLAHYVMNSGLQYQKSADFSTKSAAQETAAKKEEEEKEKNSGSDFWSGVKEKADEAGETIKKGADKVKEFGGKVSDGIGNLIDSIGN
Protocol: (§1) PBPs form a covalent complex with β-lactam antibiotics. When fluorescent β-lactams are employed, these proteins can be visualized immediately following SDS-PAGE [17]. Total protein from whole cells or a cell wall extract of L. monocytogenes EGD were incubated with different concentrations of Boc-FL, Bocillin-650 (Boc-650) or Ampicillin-Alexa430 (Amp-430) for 30 min at 37°C. The highest affinity binding was obtained with Boc-FL and bands identified using this compound in the whole cell assay are shown in Figure 1. PBPs A1, B2, B1, A2, B3, D1, C1 and C2 were also identified with Boc-650 and Amp-430 (data not shown). Two types of non-specific band were also observed (lane 1, 0 μM Boc-FL) and they represent the natural intrinsic fluorescence of other proteins in the cell extract. However, the bands that are absent in lane 8 (ampicillin 100 μg/ml, 50 μM Boc-FL) compared with lane 7 (50 μM Boc-FL) represent specific PBPs. Those bands that completely disappeared (PBPB1, PBPD1), partially disappeared (PBPA1, PBPB2, PBPA2 and PBPB3) or remained present (PBPC1 and PBPC2) reflect total, partial and no binding of ampicillin, respectively. The results of an experiment examining saturation with 50 μM Boc-FL, the binding capacity of each PBP for Boc-FL and the affinity of the PBPs for ampicillin (Amp) are presented in Table 2. These assays involved incubation of whole cell with ampicillin followed by a similar incubation with Boc-FL. Therefore, only those PBPs with no or low affinity for ampicillin would be able to bind Boc-FL during the second incubation. The deacylation rate for the PBPs is actually extremely low, which permitted their detection in the gel for several hours after binding.
(§2) Figure 1 Complete set of PBPs identified with Boc-FL in whole cells of L. monocytogenes. Samples of whole cells (100 μg of total protein) were labeled with Boc-FL at concentrations of 0 (1), 0.5 (2), 1 (3), 2.5 (4), 5 (5), 10 (6), 50 μM (7) and 50 μM plus 100 μg/ml ampicillin (8). Labeled bands were detected directly on the gel, quantified, and their molecular mass estimated. The affinity of each band for Boc-FL (ID50) was estimated from their fluorescence as a function of the concentration of Boc-FL. The name of the PBP corresponding to each band is indicated on the right, while the positions of molecular weight markers (bars) and unspecific bands (arrowheads) are shown on the left.
(§3) Total whole cell proteins or purified recombinant protein resuspended in 50 mM NaPi buffer, pH 7.0 were labeled by incubation at 37°C for 30 min with different concentrations of Boc-FL (Molecular Probes), Boc-650 (Molecular Probes) or Amp-430 (prepared in the laboratory by coupling ampicillin to Alexa-430), and then separated on a 10% acrylamide, 3.3% cross-linkage SDS-PAGE gel. To avoid degradation of the fluorescent β-lactam antibiotics by β-lactamases, samples were incubated at 37°C with clavulanic acid at a final concentration of 10 μg/ml or EDTA at a final concentration of 10 mM for 30 min before labeling, where appropriate. Competition experiments were carried out by preincubation of the samples with ampicillin (100 μg/ml) for 30 min at 37°C, before adding the fluorescent antibiotic. The samples were then further incubated for 30 min at 37°C. PBPs were visualized directly on the polyacryloamide gel by fluorescence using a Typhoon 9410 imager (Amersham Biosciences) with excitation wavelengths of 588, 633 or 457 nm and emission filters 520BP40, 670BP30 or 555BP20 for Boc-FL, Boc-650 and Amp-430, respectively.

PBPA1 (PBP1) [2] = molecular target: T2, PBPA1 (PBP1) (Listeria monocytogenes, UniProt Q8Y610); assay: as above
T2 sequence (Q8Y610 entry or part of it): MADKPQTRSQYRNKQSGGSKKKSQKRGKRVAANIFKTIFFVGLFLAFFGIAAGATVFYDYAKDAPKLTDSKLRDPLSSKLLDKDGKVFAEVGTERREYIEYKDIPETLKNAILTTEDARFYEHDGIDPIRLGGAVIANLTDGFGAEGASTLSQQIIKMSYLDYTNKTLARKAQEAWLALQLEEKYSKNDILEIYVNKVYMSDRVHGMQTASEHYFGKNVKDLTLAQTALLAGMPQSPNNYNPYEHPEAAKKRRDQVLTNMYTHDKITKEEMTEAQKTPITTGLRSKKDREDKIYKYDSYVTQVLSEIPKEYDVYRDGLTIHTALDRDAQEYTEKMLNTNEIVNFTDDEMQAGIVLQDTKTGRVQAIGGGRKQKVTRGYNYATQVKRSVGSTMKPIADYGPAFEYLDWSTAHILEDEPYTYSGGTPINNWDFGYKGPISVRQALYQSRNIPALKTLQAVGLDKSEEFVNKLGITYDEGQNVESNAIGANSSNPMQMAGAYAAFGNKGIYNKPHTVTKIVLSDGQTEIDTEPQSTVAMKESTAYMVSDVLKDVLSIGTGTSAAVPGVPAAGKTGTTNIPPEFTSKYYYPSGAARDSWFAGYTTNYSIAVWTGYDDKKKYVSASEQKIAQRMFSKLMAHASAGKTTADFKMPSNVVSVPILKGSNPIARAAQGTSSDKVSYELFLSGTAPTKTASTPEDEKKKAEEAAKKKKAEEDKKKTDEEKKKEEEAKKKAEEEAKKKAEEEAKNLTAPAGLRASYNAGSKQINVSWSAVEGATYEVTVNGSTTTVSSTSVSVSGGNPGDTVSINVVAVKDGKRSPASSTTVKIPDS
Protocol: as §1, §2, §3

PBPC2 = PBPC2 (Listeria monocytogenes, UniProt Q8Y5Y7); assay: as above
Sequence of PBPC2 (Q8Y5Y7 entry or part of it): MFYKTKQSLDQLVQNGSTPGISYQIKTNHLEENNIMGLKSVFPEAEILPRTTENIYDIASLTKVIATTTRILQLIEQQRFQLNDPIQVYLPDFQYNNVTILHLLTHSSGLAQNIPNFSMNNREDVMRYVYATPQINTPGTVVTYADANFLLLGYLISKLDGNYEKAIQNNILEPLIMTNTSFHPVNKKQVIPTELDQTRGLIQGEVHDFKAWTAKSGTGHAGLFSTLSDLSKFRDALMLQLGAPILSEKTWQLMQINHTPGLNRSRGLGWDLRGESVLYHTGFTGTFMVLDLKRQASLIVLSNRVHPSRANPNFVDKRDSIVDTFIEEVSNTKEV
Protocol: as §1, §2, §3

PBPD1 (PBP5) [3] = molecular target: T3, PBPD1 (PBP5) (Listeria monocytogenes, UniProt Q8Y3S7); assay: as above
T3 sequence (Q8Y3S7 entry or part of it): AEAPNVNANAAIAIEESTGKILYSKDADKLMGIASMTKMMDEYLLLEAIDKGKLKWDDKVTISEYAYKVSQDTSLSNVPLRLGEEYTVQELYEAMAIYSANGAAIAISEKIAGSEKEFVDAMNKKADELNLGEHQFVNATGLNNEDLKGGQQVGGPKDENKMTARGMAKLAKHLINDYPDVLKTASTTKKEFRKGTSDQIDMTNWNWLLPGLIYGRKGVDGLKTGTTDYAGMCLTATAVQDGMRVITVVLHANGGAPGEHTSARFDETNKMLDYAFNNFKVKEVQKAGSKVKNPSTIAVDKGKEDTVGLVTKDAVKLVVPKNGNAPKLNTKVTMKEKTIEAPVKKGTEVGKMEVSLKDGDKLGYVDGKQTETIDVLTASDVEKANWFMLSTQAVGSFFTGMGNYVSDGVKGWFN
Protocol: as §1, §2, §3

PBPB3 = PBPB3 (Listeria monocytogenes, UniProt Q8Y9T2); assay: as above
Protocol: as §1, §2, §3

PBPB2 (PBP2) [4] = molecular target: T4, PBPB2 (PBP2) (Listeria monocytogenes, UniProt Q8Y5L8); assay: as above
T4 sequence (Q8Y5L8 entry or part of it): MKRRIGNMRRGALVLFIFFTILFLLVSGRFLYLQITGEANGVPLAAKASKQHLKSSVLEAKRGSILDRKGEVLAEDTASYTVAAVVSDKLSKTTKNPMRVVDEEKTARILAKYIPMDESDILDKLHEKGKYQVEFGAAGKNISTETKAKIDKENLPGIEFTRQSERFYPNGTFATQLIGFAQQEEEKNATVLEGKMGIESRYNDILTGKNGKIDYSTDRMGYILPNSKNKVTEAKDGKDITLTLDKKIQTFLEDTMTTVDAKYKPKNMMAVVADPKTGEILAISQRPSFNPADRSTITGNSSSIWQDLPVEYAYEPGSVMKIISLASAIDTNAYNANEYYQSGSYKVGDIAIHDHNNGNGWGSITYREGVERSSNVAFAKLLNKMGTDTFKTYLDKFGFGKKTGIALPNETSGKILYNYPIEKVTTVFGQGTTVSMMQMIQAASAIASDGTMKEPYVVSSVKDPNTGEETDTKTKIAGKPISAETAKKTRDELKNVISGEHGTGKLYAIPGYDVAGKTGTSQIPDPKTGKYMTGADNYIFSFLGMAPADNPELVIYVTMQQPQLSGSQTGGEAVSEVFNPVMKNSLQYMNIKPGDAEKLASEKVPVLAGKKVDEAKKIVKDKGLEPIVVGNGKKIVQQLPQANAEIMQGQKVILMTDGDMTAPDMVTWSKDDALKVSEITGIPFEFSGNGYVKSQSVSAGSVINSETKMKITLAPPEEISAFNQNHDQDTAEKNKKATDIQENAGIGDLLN
Protocol: as §1, §2, §3

PBPB1 (PBP3) [5] = molecular target: T5, PBPB1 (PBP3) (Listeria monocytogenes, UniProt Q8Y763); assay: as above
T5 sequence (Q8Y763 entry or part of it): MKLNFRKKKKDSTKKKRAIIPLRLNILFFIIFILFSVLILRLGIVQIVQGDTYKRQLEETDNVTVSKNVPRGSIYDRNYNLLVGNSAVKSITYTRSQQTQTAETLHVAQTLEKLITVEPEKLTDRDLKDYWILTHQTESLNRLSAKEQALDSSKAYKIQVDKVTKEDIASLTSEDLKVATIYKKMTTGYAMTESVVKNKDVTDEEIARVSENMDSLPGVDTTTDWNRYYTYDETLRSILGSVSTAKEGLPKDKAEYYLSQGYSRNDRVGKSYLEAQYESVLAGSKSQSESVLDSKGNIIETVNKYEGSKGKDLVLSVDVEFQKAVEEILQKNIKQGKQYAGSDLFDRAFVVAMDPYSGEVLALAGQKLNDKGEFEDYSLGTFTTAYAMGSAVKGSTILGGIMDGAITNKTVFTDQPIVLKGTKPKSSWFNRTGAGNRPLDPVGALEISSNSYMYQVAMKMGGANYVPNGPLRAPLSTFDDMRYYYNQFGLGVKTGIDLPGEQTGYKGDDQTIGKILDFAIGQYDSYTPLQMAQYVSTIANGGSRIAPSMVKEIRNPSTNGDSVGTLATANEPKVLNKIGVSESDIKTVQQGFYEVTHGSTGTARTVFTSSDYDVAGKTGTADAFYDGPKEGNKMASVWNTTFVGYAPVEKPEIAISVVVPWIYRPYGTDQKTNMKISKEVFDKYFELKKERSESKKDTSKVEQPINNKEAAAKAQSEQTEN
Protocol: as §1, §2, §3

PBPC1 = PBPC1 (Listeria monocytogenes, UniProt Q8Y9I8); assay: as above
Sequence of PBPC1 (Q8Y9I8 entry or part of it): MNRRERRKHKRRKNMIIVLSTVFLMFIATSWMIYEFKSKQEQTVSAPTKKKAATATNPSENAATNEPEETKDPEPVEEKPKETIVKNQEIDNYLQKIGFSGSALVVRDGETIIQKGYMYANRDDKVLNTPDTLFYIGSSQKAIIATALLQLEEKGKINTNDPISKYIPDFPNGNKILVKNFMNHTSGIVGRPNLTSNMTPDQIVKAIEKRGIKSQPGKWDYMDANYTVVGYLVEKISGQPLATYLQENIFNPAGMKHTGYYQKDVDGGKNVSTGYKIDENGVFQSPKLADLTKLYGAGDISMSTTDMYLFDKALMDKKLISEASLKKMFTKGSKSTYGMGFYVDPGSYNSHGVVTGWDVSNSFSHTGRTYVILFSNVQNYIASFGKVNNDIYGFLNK
Protocol: as §1, §2, §3

[6] = molecular target: T6, purified recombinant Lmo2812 (PBPD2) (Listeria monocytogenes, UniProt Q8Y3M3); assay: Competition binding assay (ampicillin preincubation, then Boc-FL), purified recombinant protein; conditions: purified recombinant Lmo2812 preincubated with 100 μg/ml ampicillin
T6 sequence (Q8Y3M3 entry or part of it): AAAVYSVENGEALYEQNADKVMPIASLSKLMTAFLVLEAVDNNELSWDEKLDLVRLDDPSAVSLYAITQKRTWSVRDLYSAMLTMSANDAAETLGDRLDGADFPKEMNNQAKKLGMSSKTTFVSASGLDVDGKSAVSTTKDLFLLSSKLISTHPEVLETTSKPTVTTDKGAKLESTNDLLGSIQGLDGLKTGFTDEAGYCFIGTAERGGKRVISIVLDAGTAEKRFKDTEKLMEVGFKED
Protocol: as §3

[7] = test system: L. monocytogenes KD2812 (Δlmo2812); assay: Microdilution MIC test; type: cell-based, Listeria monocytogenes; conditions: Listeria monocytogenes
Protocol: (§4) To determine the effect of these mutations on cell morphology, the strains EGD, KD2812 and DA07 were analyzed by scanning electron microscopy (SEM). […] At 30°C the average cell length compared to strain EGD was increased by 38.5% in strain KD2812 and by 44.8% in the double mutant strain. The respective values at 37°C were 37.5% and 43%. […] The variant cells were characteristically curved with a bend at either one or both ends and subterminal constrictions. The number of cells with altered morphology was increased as the growth temperature was raised (Figure 3; b, e, h). Cell bending was more pronounced in the population of AD07 mutant cells (Figure 3; c, f, i). […] Similar results were found for a mutant of L. monocytogenes lacking PBP5 (PBPD1) examined in a previous study.
(§5) Microdilution tests were performed using cation-adjusted Mueller-Hinton broth (CAMHB) supplemented with 5% lysed horse blood containing two-fold dilutions of the antimicrobial agents. These mixtures were dispensed in 100 μl aliquots into plastic 96-well plates. To prepare inocula, a single colony of each strain from a TSBYE plate was transferred into 10 ml of the same medium and incubated for 24 h at 37°C. These cultures were serially diluted in CAMHB to a concentration of 10^5 cfu/ml and 100 μl aliquots were added to the microdilution plates. The plates were incubated for 18-20 h at 37°C before the reading of the MIC endpoints. The MIC was the lowest antibiotic concentration at which visible growth was inhibited.

[8] = test system: L. monocytogenes AD07 (Δlmo2812 Δlmo2754); assay: Microdilution MIC test; type: cell-based, Listeria monocytogenes; conditions: Listeria monocytogenes
Protocol: as §4, §5

L. monocytogenes EGD = assay: Microdilution MIC test; type: cell-based, Listeria monocytogenes; conditions: Listeria monocytogenes
Protocol: as §4, §5

PBPA2 (PBP4) [9] = molecular target: T1, PBPA2 (PBP4); assay: Fluorescent antibiotic binding assay, whole cells; conditions: read-out: Boc-FL Kd50, 30 min at 37°C, estimated from band fluorescence as a function of Boc-FL concentration
Protocol: as §1, §2
as §3, with “The samples were then further incubated for 30 min at 37°C.” left out

PBPA1 (PBP1) [10] = molecular target: T2, PBPA1 (PBP1); assay: Fluorescent antibiotic binding assay, whole cells; conditions: read-out: Boc-FL Kd50, 30 min at 37°C, estimated from band fluorescence as a function of Boc-FL concentration
Protocol: as §1, §2
as §3, with “The samples were then further incubated for 30 min at 37°C.” left out

PBPD1 (PBP5) [11] = molecular target: T3, PBPD1 (PBP5); assay: Fluorescent antibiotic binding assay, whole cells; conditions: read-out: Boc-FL Kd50, 30 min at 37°C, estimated from band fluorescence as a function of Boc-FL concentration
Protocol: as §1, §2
as §3, with “The samples were then further incubated for 30 min at 37°C.” left out

PBPB2 (PBP2) [12] = molecular target: T4, PBPB2 (PBP2); assay: Fluorescent antibiotic binding assay, whole cells; conditions: read-out: Boc-FL Kd50, 30 min at 37°C, estimated from band fluorescence as a function of Boc-FL concentration
Protocol: as §1, §2
as §3, with “The samples were then further incubated for 30 min at 37°C.” left out

PBPB1 (PBP3) [13] = molecular target: T5, PBPB1 (PBP3); assay: Fluorescent antibiotic binding assay, whole cells; conditions: read-out: Boc-FL Kd50, 30 min at 37°C, estimated from band fluorescence as a function of Boc-FL concentration
Protocol: as §1, §2
as §3, with “The samples were then further incubated for 30 min at 37°C.” left out

[14] = molecular target: T6, purified recombinant Lmo2812 (PBPD2); assay: Fluorescent antibiotic binding assay, purified recombinant protein
Protocol: The purified protein was incubated with different concentrations of Boc-FL (0.25, 0.5, 2.5, 5 and 10 μM). […] Lmo2812 was the major band on gels, with a slower migrating minor band thought to represent a dimeric form (Figure 2).
Figure 2 Purified recombinant L. monocytogenes Lmo2812 (PBPD2) identified with Boc-FL. Samples of purified recombinant Lmo2812 (10 μg) were labeled with Boc-FL at concentrations of 0 (1), 0.25 (2), 0.5 (3), 2.5 (4), 5 (5) and 10 μM (6). Labeled bands were detected directly on the gel, quantified and their molecular mass estimated. The affinity of the bands for Boc-FL (Kd50) was estimated from their fluorescence as a function of the concentration of Boc-FL. The names of the bands are indicated on the right, and the positions of the molecular weight markers are shown on the left.
The β-lactam binding capacity of Lmo2812 was evaluated with three different fluorescent antibiotics: Boc-FL, Boc-650 and Amp-430.
as §3, with “respectively. […]” for “respectively.”

[15] = ampicillin 100 μg/ml, 50 μM Boc-FL, Figure 1 lane 8 vs lane 7
[16] = preincubated with 100 μg/ml ampicillin, then 50 μM Boc-FL

CC1(C)S[C@@H]2[C@H](NC(=O)[C@H](N)c3ccccc3)C(=O)N2[C@H]1C(=O)O [ampicillin]
binding of ampicillin (disappearance of Boc-FL band) (PBPA2 (PBP4) [1]; [15]): partial
percentage of Boc-FL binding capacity remaining (PBPA2 (PBP4) [1]; [16]): 90%
binding of ampicillin (disappearance of Boc-FL band) (PBPA1 (PBP1) [2]; [15]): partial
percentage of Boc-FL binding capacity remaining (PBPA1 (PBP1) [2]; [16]): 95%
binding of ampicillin (disappearance of Boc-FL band) (PBPC2; [15]): no binding
percentage of Boc-FL binding capacity remaining (PBPC2; [16]): 100%
inhibition of Boc-FL binding (PBPD1 (PBP5) [3]; Amp at 100 μg/ml): completely inhibited
binding of ampicillin (disappearance of Boc-FL band) (PBPD1 (PBP5) [3]; [15]): total
percentage of Boc-FL binding capacity remaining (PBPD1 (PBP5) [3]; [16]): 0%
binding of ampicillin (disappearance of Boc-FL band) (PBPB3; [15]): partial
percentage of Boc-FL binding capacity remaining (PBPB3; [16]): 95%
binding of ampicillin (disappearance of Boc-FL band) (PBPB2 (PBP2) [4]; [15]): partial
percentage of Boc-FL binding capacity remaining (PBPB2 (PBP2) [4]; [16]): 90%
inhibition of Boc-FL binding (PBPB1 (PBP3) [5]; Amp at 100 μg/ml): completely inhibited
binding of ampicillin (disappearance of Boc-FL band) (PBPB1 (PBP3) [5]; [15]): total
percentage of Boc-FL binding capacity remaining (PBPB1 (PBP3) [5]; [16]): 0%
binding of ampicillin (disappearance of Boc-FL band) (PBPC1; [15]): no binding
percentage of Boc-FL binding capacity remaining (PBPC1; [16]): 100%
percentage of Boc-FL binding capacity remaining [6]: 0^b %
MIC [7]: 0.31 µg/mL (≈ 0.887 µM)
MIC [8]: 0.16 µg/mL (≈ 0.458 µM)
MIC (L. monocytogenes EGD): 0.31 µg/mL (≈ 0.887 µM)

Cc1cc(C)n2c1C=C1C=CC(CCC(=O)Nc3ccc(OCC(=O)N[C@@H]4C(=O)N5[C@@H]4SC(C)(C)[C@@H]5C(=O)O)cc3)=[N+]1[B-]2(F)F [Boc-FL, Bocillin-FL]
Kd (PBPA2 (PBP4) [9]): 250 nM
Kd (PBPA1 (PBP1) [10]): > 10000 nM
Kd (PBPD1 (PBP5) [11]): 5000 nM
Kd (PBPB2 (PBP2) [12]): 250 nM
Kd (PBPB1 (PBP3) [13]): 250 nM
Kd [14]: 2500 nM
